Laboratory results as given in patent US9121007B2, “Treatment of bone-related cancers using placental stem cells” (ANTHROGENESIS CORPORATIN, priority 2010, dated 2015).

System: osteoclast precursors
Assay: Osteoclastogenesis from osteoclast precursors with lenalidomide
Format: cell-based
Procedure: FIG. 15. Therefore, there is a possible synergistic or additive anti-osteoclastogenic effect of PDACs and lenalidomide at concentration of between about 0.1 μM to 1 μM.

## Nc1cccc2c1CN(C1CCC(=O)NC1=O)C2=O (centres unmarked) [lenalidomide, 3-(4-amino-1-oxo 1,3-dihydro-2H-isoindol-2-yl) piperidine-2,6-dione]
0.1 μM or 1 μM lenalidomide with placental stem cells, vs placental stem cells or BM-MSC
  number of osteoclasts that differentiated from the osteoclast precursors: further decrease the number of osteoclasts
Lenalidomide alone at concentrations around 1 μM
  number of osteoclasts formed: steep decline in the number of osteoclasts formed
